Measurements taken from patent US20230398130A1, “METHODS AND COMPOSITIONS FOR DIFFERENTIATING STEM CELLS” (Massachusetts Institute of Technology, priority 2020, published 2023).

How the values were obtained:
ISC-enriched organoids [1] = experiment: Primary screen, 384-well 2.5-D organoid differentiation (ENR+CD, 6 days, Target Selective Inhibitor Library, vs whole-plate median): ATP (CellTiter-Glo 3D, CTG); conditions: for Dose.FC.CTG: ENR+CD, 6 days, FC vs plate median; for Z.CTG: standard z score of FC
ISC-enriched organoids [2] = experiment: Primary screen, 384-well 2.5-D organoid differentiation (ENR+CD, 6 days): basal lysozyme secretion (LYZ.NS); type: cell-based, murine; conditions: for Dose.FC.LYZ.NS: ENR+CD, 6 days, FC vs plate median; for Z.LYZ.NS: standard z score of FC
Text: (§1) High-throughput screening.

ISC-enriched organoids [3] = experiment: Primary screen, 384-well 2.5-D organoid differentiation (ENR+CD, 6 days): carbachol-induced lysozyme secretion (LYZ.S); type: cell-based, murine; conditions: ENR+CD, 6 days, FC vs plate median
Text: as §1

SMILES | Dose.FC.CTG (ISC-enriched organoids [1]; Dose 0.08 uM) | Z.CTG (ISC-enriched organoids [1]; Dose 0.08 uM) | Dose.FC.CTG (ISC-enriched organoids [1]; Dose 0.40 uM) | Z.CTG (ISC-enriched organoids [1]; Dose 0.40 uM) | Dose.FC.CTG (ISC-enriched organoids [1]; Dose 2.00 uM) | Z.CTG (ISC-enriched organoids [1]; Dose 2.00 uM) | Dose.FC.CTG (ISC-enriched organoids [1]; Dose 10.00 uM) | Z.CTG (ISC-enriched organoids [1]; Dose 10.00 uM) | Dose.FC.LYZ.NS (ISC-enriched organoids [2]; Dose 0.08 uM) | Z.LYZ.NS (ISC-enriched organoids [2]; Dose 0.08 uM) | Dose.FC.LYZ.NS (ISC-enriched organoids [2]; Dose 0.40 uM) | Z.LYZ.NS (ISC-enriched organoids [2]; Dose 0.40 uM) | Dose.FC.LYZ.NS (ISC-enriched organoids [2]; Dose 2.00 uM) | Z.LYZ.NS (ISC-enriched organoids [2]; Dose 2.00 uM) | Dose.FC.LYZ.NS (ISC-enriched organoids [2]; Dose 10.00 uM) | Z.LYZ.NS (ISC-enriched organoids [2]; Dose 10.00 uM) | Dose.FC.LYZ.S (ISC-enriched organoids [3]; Dose 0.08 uM) | Dose.FC.LYZ.S (ISC-enriched organoids [3]; Dose 0.40 uM) | Dose.FC.LYZ.S (ISC-enriched organoids [3]; Dose 2.00 uM) | Dose.FC.LYZ.S (ISC-enriched organoids [3]; Dose 10.00 uM)
C[C@H](N[C@@H](CCc1ccccc1)C(=O)O)C(=O)N1CCC[C@H]1C(=O)O.O.O [Enalaprilat Dihydrate] | −0.190 log 2 fold change | −0.454 | −0.124 log 2 fold change | −0.296 | −0.331 log 2 fold change | −0.791 | −0.979 log 2 fold change | −2.338 | 0.003 log 2 fold change | 0.027 | −0.003 log 2 fold change | −0.030 | −0.022 log 2 fold change | −0.195 | −0.157 log 2 fold change | −1.364 | −0.001 log 2 fold change | 0.111 log 2 fold change | −0.095 log 2 fold change | −0.281 log 2 fold change
CNC(=O)c1ccc(N2C(=S)N(c3ccc(C#N)c(C(F)(F)F)c3)C(=O)C2(C)C)cc1F [Enzalutamide (MDV3100)] | 0.195 log 2 fold change | 0.465 | 0.256 log 2 fold change | 0.611 | 0.076 log 2 fold change | 0.181 | 0.146 log 2 fold change | 0.348 | 0.162 log 2 fold change | 1.411 | 0.166 log 2 fold change | 1.446 | 0.024 log 2 fold change | 0.210 | 0.094 log 2 fold change | 0.820 | 0.176 log 2 fold change | 0.276 log 2 fold change | 0.077 log 2 fold change | 0.076 log 2 fold change
Cn1cc(C2=C(c3cn(C4CCN(Cc5ccccn5)CC4)c4ccccc34)C(=O)NC2=O)c2ccccc21 [Enzastaurin (LY317615)] | 0.236 log 2 fold change | 0.565 | 0.475 log 2 fold change | 1.135 | 0.251 log 2 fold change | 0.600 | −0.081 log 2 fold change | −0.194 | 0.085 log 2 fold change | 0.744 | 0.131 log 2 fold change | 1.143 | 0.053 log 2 fold change | 0.458 | −0.116 log 2 fold change | −1.012 | 0.109 log 2 fold change | 0.251 log 2 fold change | 0.053 log 2 fold change | −0.226 log 2 fold change
CCOC(=O)c1cncn1[C@H](C)c1ccccc1 [Etomidate] | 0.084 log 2 fold change | 0.201 | 0.006 log 2 fold change | 0.014 | 0.163 log 2 fold change | 0.389 | 0.039 log 2 fold change | 0.094 | −0.008 log 2 fold change | −0.065 | 0.037 log 2 fold change | 0.318 | 0.015 log 2 fold change | 0.131 | −0.001 log 2 fold change | −0.010 | 0.053 log 2 fold change | 0.048 log 2 fold change | 0.054 log 2 fold change | −0.008 log 2 fold change
CO[C@H]1C[C@@H]2CC[C@@H](C)[C@@](O)(O2)C(=O)C(=O)N2CCCC[C@H]2C(=O)O[C@H]([C@H](C)C[C@@H]2CC[C@@H](OCCO)[C@H](OC)C2)CC(=O)[C@H](C)/C=C(\C)[C@@H](O)[C@@H](OC)C(=O)[C@H](C)C[C@H](C)/C=C/C=C/C=C/1C [Everolimus (RAD001)] | 0.392 log 2 fold change | 0.936 | 0.127 log 2 fold change | 0.304 | 0.132 log 2 fold change | 0.314 | −0.111 log 2 fold change | −0.266 | 0.068 log 2 fold change | 0.590 | 0.110 log 2 fold change | 0.956 | −0.003 log 2 fold change | −0.030 | −0.024 log 2 fold change | −0.210 | −0.012 log 2 fold change | −0.007 log 2 fold change | −0.039 log 2 fold change | −0.096 log 2 fold change
CC1=C(C(=O)OC2CCCCC2)C(c2ccc([N+](=O)[O-])cc2)C2=C(CC(C)(C)CC2=O)N1 (stereo not shown) [FLI-06] | 0.089 log 2 fold change | 0.213 | 0.095 log 2 fold change | 0.226 | 0.076 log 2 fold change | 0.182 | −0.343 log 2 fold change | −0.819 | 0.050 log 2 fold change | 0.439 | −0.026 log 2 fold change | −0.230 | −0.054 log 2 fold change | −0.466 | −0.140 log 2 fold change | −1.216 | 0.079 log 2 fold change | 0.010 log 2 fold change | −0.077 log 2 fold change | −0.170 log 2 fold change
CCOC(=O)c1ccc(NC2CCCCC2)c(N)c1 [Ferrostatin-1 (Fer-1)] | 0.312 log 2 fold change | 0.745 | 0.453 log 2 fold change | 1.082 | 0.215 log 2 fold change | 0.514 | −0.046 log 2 fold change | −0.109 | 0.108 log 2 fold change | 0.944 | 0.116 log 2 fold change | 1.012 | 0.070 log 2 fold change | 0.610 | 0.013 log 2 fold change | 0.116 | 0.120 log 2 fold change | 0.207 log 2 fold change | 0.092 log 2 fold change | −0.018 log 2 fold change
CCCCCCCCc1ccc(CCC(N)(CO)CO)cc1.Cl [Fingolimod (FTY720) HCl] | −0.080 log 2 fold change | −0.191 | 0.103 log 2 fold change | 0.245 | −0.468 log 2 fold change | −1.119 | −1.304 log 2 fold change | −3.116 | −0.054 log 2 fold change | −0.471 | 0.071 log 2 fold change | 0.616 | 0.021 log 2 fold change | 0.186 | −0.225 log 2 fold change | −1.961 | −0.046 log 2 fold change | 0.077 log 2 fold change | −0.060 log 2 fold change | −0.362 log 2 fold change
